Where two headings read alike, the source gives them in different places.
What was measured:
[1] = relative to Enrollment Visit
Description: Table 2 presents the ACR20 (American College of Rheumatology 20% improvement in response rate) response rates (relative to Enrollment Visit, i.e., pre-TOFACITINIB treatment).

[2] = tested on: LDL-C; conditions: for Percent Change from Baseline in LDL, adjusted mean: TOFACITINIB 10 mg BID
[3] = tested on: HDL; conditions: FIG. 2
[4] = tested on: Apolipoprotein A-1; conditions: FIG. 3
[5] = tested on: Apolipoprotein B; conditions: FIG. 4
[6] = tested on: triglycerides; conditions: FIG. 5
[7] = tested on: total cholesterol; conditions: FIG. 6
[8] = following introduction of TOFACITINIB treatment
[9] = after Enrollment Visit (introduction of TOFACITINIB treatment)

## C[C@@H]1CCN(C(=O)CC#N)C[C@@H]1N(C)c1ncnc2[nH]ccc12 [TOFACITINIB, 3-{(3R,4R)-4-Methyl-3-[methyl-(7H-pyrrolo-[2,3-d]pyrimidin-4-yl)-amino]-piperidin-1-yl}-3-oxo-propionitrile]
[1]; Baseline (after 6 week treatment of TOFACITINIB 10 mg BID), atorvastatin group before add-on
  ACR20 response rate, % of responders: 76.0%
[1]; Baseline (after 6 week treatment of TOFACITINIB 10 mg BID), atorvastatin group before add-on, N 50
  ACR20 response, number of responders: 38
[1]; Baseline (after 6 week treatment of TOFACITINIB 10 mg BID), placebo group before add-on
  ACR20 response rate, % of responders: 76.6%
[1]; Baseline (after 6 week treatment of TOFACITINIB 10 mg BID), placebo group before add-on, N 47
  ACR20 response, number of responders: 36
[1]; Week 12, after 6 week treatment of atorvastatin or placebo added on to TOFACITINIB 10 mg BID
  ACR20 response rate, % of responders: 65.2%
[1]; Week 12, after 6 week treatment of atorvastatin or placebo added on to TOFACITINIB 10 mg BID, N 46
  ACR20 response, number of responders: 30
[2]; Week 10
  Percent Change from Baseline in LDL, adjusted mean: 5.5%
[2]; Week 12 (primary endpoint)
  Percent Change from Baseline in LDL, adjusted mean: 5.8%
[2]; after 6 weeks treatment with TOFACITINIB, placebo/TOFACITINIB treatment group, before placebo was added
  baseline LDL-C mean: 138.26 mg/dL
[2]; after Baseline Visit, FIG. 1
  LDL level, trend: slightly increasing trend
[2]; after Enrollment Visit (introduction of TOFACITINIB treatment), FIG. 1
  median LDL-C level, trend: increase
[2]; week 12, 6 weeks following randomization
  LDL-C mean: 142.61 mg/dL
[3]; after Baseline Visit
  HDL level, trend: slight upward trend
[3]; following the Enrollment Visit
  HDL level, trend: increase
[4]; after Baseline Visit
  Apolipoprotein A-1 level, trend: slightly trend upward
[4]; [8]
  Apolipoprotein A-1 level, trend: increases
[5]; after Baseline Visit
  Apolipoprotein B level, trend: slightly increasing trend
[5]; [9]
  median Apolipoprotein B level, trend: increase
[6]; after Baseline Visit
  triglycerides level, trend: increases continue
[6]; [8]
  triglycerides level, trend: increase
[7]; after Baseline Visit
  total cholesterol level, trend: slightly increasing trend
[7]; [9]
  median total cholesterol level, trend: increase

From US20120252825A1, “BENEFICIAL EFFECTS OF COMBINATION THERAPY ON CHOLESTEROL” (Pfizer Inc., priority 2011, published 2012)
